The supplement of paper PMC11208160

Test: recombinant UMI read abundance after kanamycin selection (control-corrected) (log10(CPM+1)); higher = more efficient recombination; extreme values may be limits of the assay; sequences stand for … in AGTGCAGAGAAAATCGGCCAGTTTTCTCTGCCTGCAGTCCGCATGCCGTGGGACCCCTTGGGTTCTAACCTGTTGCCTAGATTTATGCAGCGGACTGCCTTTCTCCCAAAGTGATAAACCGG…AGGTTGGTTTCACT; site = the 11-nt donor
In short: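 Each donor and donor-binding-loop pair was tracked by a 12-nt UMI on a plasmid carrying a promoterless kanamycin gene. With a second plasmid supplying a fixed target and T7-inducible IS621 bridge recombinase, the pool was plated in Escherichia coli on IPTG (0.07 mM) plus kanamycin or unselected. Sequencing of recombinant UMIs across the donor–target junction gave counts expressed as log10(CPM+1) after replicate averaging and control-derived scaling.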

Row | Sequence | recombinant UMI read abundance (log10)
1 | GAGAAGACATGGACCGGTTTTCCCGGTAATCCGTATTTGAA (site GAGAAGACTTT) | 1.82
2 | GAGAAGCCATGGACCGGTTTTCCCGGTAATCCGTATTTGTC (site GAGAAGCCTGA) | 0
3 | GAGAATACATGGACCGGTTTTCCCGGTAATCCGTATTTGCA (site AAGAATACTTG) | 0
4 | GAGAATACATGGACCGGTTTTCCCGGTAATCCGTATTTGCA (site CAGAATACTTG) | 0.0136
5 | GAGAATACATGGACCGGTTTTCCCGGTAATCCGTATTTGCA (site GAGAATACTTG) | 2.23
6 | GAGAATACATGGACCGGTTTTCCCGGTAATCCGTATTTGCA (site TAGAATACTTG) | 0.944
7 | GAGACGCCATGGACCGGTTTTCCCGGTAATCCGTATTTGCC (site GAGACGCCTGG) | 0
8 | GAGACGGCATGGACCGGTTTTCCCGGTAATCCGTATTTGAG (site GAGACGGCTCT) | 0.892
9 | GAGACTCCATGGACCGGTTTTCCCGGTAATCCGTATTTGTA (site GAGACTCCTTA) | 0.807
10 | GAGCACACATGGACCGGTTTTCCCGGTAATCCGTATTTGGA (site GAGCACACTTC) | 0.594
11 | GAGCCTTCATGGACCGGTTTTCCCGGTAATCCGTATTTGGT (site AAGCCTTCTAC) | 0.678
12 | GAGCCTTCATGGACCGGTTTTCCCGGTAATCCGTATTTGGT (site CAGCCTTCTAC) | 0.79
13 | GAGCCTTCATGGACCGGTTTTCCCGGTAATCCGTATTTGGT (site GAGCCTTCTAC) | 0.859
14 | GAGCCTTCATGGACCGGTTTTCCCGGTAATCCGTATTTGGT (site TAGCCTTCTAC) | 0.0029
15 | GAGCGAGCATGGACCGGTTTTCCCGGTAATCCGTATTTGTA (site GAGCGAGCTTA) | 2.57
16 | GAGCTCACATGGACCGGTTTTCCCGGTAATCCGTATTTGAC (site GAGCTCACTAT) | 1
17 | GAGCTCACATGGACCGGTTTTCCCGGTAATCCGTATTTGAC (site GAGCTCACTCT) | 0.476
18 | GAGCTCACATGGACCGGTTTTCCCGGTAATCCGTATTTGAC (site GAGCTCACTGT) | 2.53
19 | GAGCTCACATGGACCGGTTTTCCCGGTAATCCGTATTTGAC (site GAGCTCACTTT) | 0.00766
20 | GAGCTCACATGGACCGGTTTTCCCGGTAATCCGTATTTGTT (site GAGCTCACTAA) | 1.53
21 | GAGCTCACATGGACCGGTTTTCCCGGTAATCCGTATTTGTT (site GAGCTCACTAC) | 0.0125
22 | GAGCTCACATGGACCGGTTTTCCCGGTAATCCGTATTTGTT (site GAGCTCACTAG) | 2.34
23 | GAGCTCACATGGACCGGTTTTCCCGGTAATCCGTATTTGTT (site GAGCTCACTAT) | 1.08
24 | GAGGATGCATGGACCGGTTTTCCCGGTAATCCGTATTTGTA (site GAGGATGCTTA) | 2.8
25 | GAGGCTACATGGACCGGTTTTCCCGGTAATCCGTATTTGTG (site GAGGCTACTCA) | 1.4

Row | Sequence | recombinant UMI read abundance (log10)
26 | GAGGGTACATGGACCGGTTTTCCCGGTAATCCGTATTTGGC (site GAGGGTACTGC) | 2.1
27 | GAGGTACCATGGACCGGTTTTCCCGGTAATCCGTATTTGTA (site GAGGTACCTTA) | 0.00435
28 | GAGGTATCATGGACCGGTTTTCCCGGTAATCCGTATTTGCT (site GAGGTATCTAG) | 2.57
29 | GAGGTCACATGGACCGGTTTTCCCGGTAATCCGTATTTGAT (site GAGATCACTAT) | 1.36
30 | GAGGTCACATGGACCGGTTTTCCCGGTAATCCGTATTTGAT (site GAGCTCACTAT) | 0.00889
31 | GAGGTCACATGGACCGGTTTTCCCGGTAATCCGTATTTGAT (site GAGGTCACTAT) | 1.35
32 | GAGGTCACATGGACCGGTTTTCCCGGTAATCCGTATTTGAT (site GAGTTCACTAT) | 0
33 | GAGTATCCATGGACCGGTTTTCCCGGTAATCCGTATTTGCT (site GAATATCCTAG) | 0
34 | GAGTATCCATGGACCGGTTTTCCCGGTAATCCGTATTTGCT (site GACTATCCTAG) | 0.506
35 | GAGTATCCATGGACCGGTTTTCCCGGTAATCCGTATTTGCT (site GAGTATCCTAG) | 0.75
36 | GAGTATCCATGGACCGGTTTTCCCGGTAATCCGTATTTGCT (site GATTATCCTAG) | 0
37 | GAGTCCTCATGGACCGGTTTTCCCGGTAATCCGTATTTGCC (site GAGTCCTCTGG) | 0
38 | GAGTCGACATGGACCGGTTTTCCCGGTAATCCGTATTTGGG (site AAGTCGACTCC) | 0.257
39 | GAGTCGACATGGACCGGTTTTCCCGGTAATCCGTATTTGGG (site CAGTCGACTCC) | 0.0177
40 | GAGTCGACATGGACCGGTTTTCCCGGTAATCCGTATTTGGG (site GAGTCGACTCC) | 0.044
41 | GAGTCGACATGGACCGGTTTTCCCGGTAATCCGTATTTGGG (site TAGTCGACTCC) | 0.0071
42 | GAGTGCCCATGGACCGGTTTTCCCGGTAATCCGTATTTGCC (site GAGTGCCCTGG) | 0
43 | GAGTTTCCATGGACCGGTTTTCCCGGTAATCCGTATTTGCG (site GAGTTTCCTCG) | 0.572
44 | GATAATCCATGGACCGGTTTTCCCGGTAATCCGTATTTGCT (site GATAATCCTAG) | 0
45 | GATAATCCATGGACCGGTTTTCCCGGTAATCCGTATTTGCT (site GATCATCCTAG) | 0
46 | GATAATCCATGGACCGGTTTTCCCGGTAATCCGTATTTGCT (site GATGATCCTAG) | 0
47 | GATAATCCATGGACCGGTTTTCCCGGTAATCCGTATTTGCT (site GATTATCCTAG) | 0
48 | GATACGTCATGGACCGGTTTTCCCGGTAATCCGTATTTGGT (site GATACGTCTAC) | 1.36
49 | GATAGAACATGGACCGGTTTTCCCGGTAATCCGTATTTGGC (site GATAGAACTGC) | 1.7
50 | GATAGAACATGGACCGGTTTTCCCGGTAATCCGTATTTGGC (site GCTAGAACTGC) | 0

Row | Sequence | recombinant UMI read abundance (log10)
51 | GATAGAACATGGACCGGTTTTCCCGGTAATCCGTATTTGGC (site GGTAGAACTGC) | 0
52 | GATAGAACATGGACCGGTTTTCCCGGTAATCCGTATTTGGC (site GTTAGAACTGC) | 0
53 | GATCAGACATGGACCGGTTTTCCCGGTAATCCGTATTTGAA (site GATCAGACTTT) | 0.431
54 | GATCAGCCATGGACCGGTTTTCCCGGTAATCCGTATTTGCC (site GATCAGCCTGG) | 0.649
55 | GATCAGCCATGGACCGGTTTTCCCGGTAATCCGTATTTGGT (site GATCAGCCTAC) | 0.00497
56 | GATCGGACATGGACCGGTTTTCCCGGTAATCCGTATTTGAC (site GATAGGACTGT) | 0
57 | GATCGGACATGGACCGGTTTTCCCGGTAATCCGTATTTGAC (site GATCGGACTGT) | 1.11
58 | GATCGGACATGGACCGGTTTTCCCGGTAATCCGTATTTGAC (site GATGGGACTGT) | 0
59 | GATCGGACATGGACCGGTTTTCCCGGTAATCCGTATTTGAC (site GATTGGACTGT) | 0
60 | GATCTCACATGGACCGGTTTTCCCGGTAATCCGTATTTGAT (site GAACTCACTAT) | 0.831
61 | GATCTCACATGGACCGGTTTTCCCGGTAATCCGTATTTGAT (site GACCTCACTAT) | 0.0659
62 | GATCTCACATGGACCGGTTTTCCCGGTAATCCGTATTTGAT (site GAGCTCACTAT) | 0.00697
63 | GATCTCACATGGACCGGTTTTCCCGGTAATCCGTATTTGAT (site GATCTCACTAT) | 0.574
64 | GATCTTCCATGGACCGGTTTTCCCGGTAATCCGTATTTGAT (site GATCTTCCTAT) | 0.048
65 | GATGCAACATGGACCGGTTTTCCCGGTAATCCGTATTTGAT (site GATGCAACTAT) | 0.357
66 | GATGTAGCATGGACCGGTTTTCCCGGTAATCCGTATTTGCG (site GATGTAGCTCG) | 1.72
67 | GATGTGTCATGGACCGGTTTTCCCGGTAATCCGTATTTGAA (site GATGTGTCTTT) | 2.22
68 | GATGTTGCATGGACCGGTTTTCCCGGTAATCCGTATTTGCT (site GATGTTGCTAG) | 2.51
69 | GATTAAACATGGACCGGTTTTCCCGGTAATCCGTATTTGCG (site GATTAAACTCG) | 0.992
70 | GATTAGACATGGACCGGTTTTCCCGGTAATCCGTATTTGAC (site GATTAGACTGT) | 2.76
71 | GATTAGACATGGACCGGTTTTCCCGGTAATCCGTATTTGAC (site GATTCGACTGT) | 0
72 | GATTAGACATGGACCGGTTTTCCCGGTAATCCGTATTTGAC (site GATTGGACTGT) | 0
73 | GATTAGACATGGACCGGTTTTCCCGGTAATCCGTATTTGAC (site GATTTGACTGT) | 0
74 | GATTATGCATGGACCGGTTTTCCCGGTAATCCGTATTTGGA (site AATTATGCTTC) | 0.871
75 | GATTATGCATGGACCGGTTTTCCCGGTAATCCGTATTTGGA (site CATTATGCTTC) | 1.13
